These results are taken from a melting point compilation (Tetko et al.).

A word on the melting point: it is the temperature of the solid-liquid transition.

Take `CCCCCOC(C)=O`: the melting point was -70.8 °C.
In the case of `COc1ccc(NC=C2C(=O)NN=C2c2c(O)c3ccccc3n(C)c2=O)cc1` it was 281 °C; in that of `Brc1noc2ncccc12`, 135 °C; in that of `Clc1ccc2c(c1)Cc1cc(Cl)ccc1-2`, 128 °C.
For `CC(C)(C)OC(=O)NO`, the melting point is 57 °C.
In the case of `NC(=O)C(=O)O` it was 210 °C; in that of `CSc1cnccn1`, 44 to 47 °C.
In the case of `O=C1c2ccccc2C(=O)N1CCCO` it was 78 °C; in that of `CC(C)(CC(=O)O)c1ccccc1`, 60 °C; in that of `O=C(O)CC(CC(=O)O)C(=O)O`, 166 °C.
`C=C(C)n1c(=O)[nH]c2ccccc21`: the melting point lay in the range of 120 to 124 °C.
The figure for `COC1CCC(CC(=O)O)CC1` (stereo not given) is 78 °C; for `CC1(C)C(=O)OOC1=O` it is 44 to 45 °C; for `CCCc1ccc(NC(C)=O)cc1` it is 98 to 100 °C.
Compound `CC(C)(C)OC(=O)N1CCN(c2ccc(C(=O)O)cn2)CC1` returned a melting point of 298 to 300 °C.
The figure for `C#CC(O)COc1cccc(C(F)(F)F)c1` (stereo not given) is 32 °C.
On to `CC1CCC2(O)C(C)(C)C3CCC2(C)C1C3` (stereo not given), for which the melting point is 56 °C.
The figure for `COC(=O)CC1C(=O)NC(C)=C1C(=O)OC` (stereo not given) is 93 to 94 °C; for `COc1ccc(C2Nn3c(nnc3-c3cccnc3)S2)cc1` (stereo not given) it is 219 °C; for `O=C(c1ccccc1)C1SC(=S)N(c2ccccc2)C1=O` (stereo not given) it is 159 °C.
In the case of `CCOP(=S)(OCC)SC(CCl)N1C(=O)c2ccccc2C1=O` (stereo not given) it was 68 °C.
The figure for `OCCN(CCO)Cc1ccc(COc2ccccc2)cc1` is 88 °C; for `CCc1n[nH]c2c1C(c1ccccc1)C(C#N)=C(N)O2` (stereo not given) it is 192 to 196 °C.
As to `COc1cc(C)cc(OC)c1C=O`, the melting point amounted to 93 °C.
The compound `Oc1cc(O)nc(S)n1` registered a melting point of 240 to 255 °C.
Compound `COc1ccc(C2CNC(=O)C2)cc1OC1CCCC1` (stereo not given) showed a melting point of 127 to 133 °C.
In the case of `O=C1OC(=O)c2c(F)c(F)c(F)c(F)c21` it was 95 °C.
In the case of `CC(=O)C(F)(F)F` it was -78 °C.
The figure for `O=C(O)c1cccc(I)c1C(=O)O` is 178 to 182 °C; for `CCOC(=O)CCCCCCCCCCCCC(=O)OCC` it is 28 to 31 °C.
`COc1ccc(C=CC#N)c(Cl)c1OC`: the melting point was in the range of 107 to 110 °C.
Consider `Cc1ccc(NC(=O)CC(C)c2ccc(C)cc2)cc1` (stereo not given), for which the melting point was 105 °C.
In the case of `Cc1nc(-c2cccc(C(=O)O)c2)cs1` it was 200 to 201 °C.
`CN(CCCN1c2ccccc2CCc2ccccc21)CC(=O)c1ccc(Cl)cc1` registered a melting point of 105 °C.
The figure for `CCCCCCCC(=O)Oc1c(Br)cc(C#N)cc1Br` is 45.5 °C; for `Oc1ccnc2cc(Cl)ccc12` it is 280 °C.
In the case of `NC(=O)Cc1nc(-c2ccc([N+](=O)[O-])cc2)cs1` it was 202 to 203 °C.
Compound `Cc1ccccc1NCCNc1ccccc1C` displayed a melting point of 72 °C.
In the case of `Cc1nc(-c2ccccc2)sc1S(=O)(=O)Cl` it was 76 to 78 °C.
The figure for `O=C1OC(c2ccccc2)=NC1=Cc1ccco1` is 158 to 159 °C; for `O=C(O)C1(c2ccc(Cl)cc2)CCCC1` it is 160 to 164 °C.
Regarding `Cc1c(N/N=C(/C(=O)c2cccc3ccccc23)S(=O)(=O)c2ccccc2)c(=O)n(-c2ccccc2)n1C`, the melting point worked out at 110 °C.
The figure for `CC(C)C(N)CC(=O)O` (stereo not given) is 206 to 209 °C; for `Cc1ccc(C(=O)O)c(C)c1` it is 125 °C; for `COC(=O)C=Cc1cccc(C=CC(=O)OC)c1` it is 132 °C.
The figure for `CCCCCCNC(=O)n1cc(F)c(=O)[nH]c1=O` is 110 °C.
The compound `O=[N+]([O-])c1ccc2ccccc2c1` had a melting point of 79 °C.
The figure for `O=C(O)c1cccc2cccc(Br)c12` is 169 to 171 °C; for `Clc1cn2ccsc2n1` it is 85 °C.
In the case of `CCSCCO` it was -100 °C.
The figure for `COc1cc(C=O)ccc1OC1OC(CO)C(O)C(O)C1O` (stereo not given) is 189 °C.
In the case of `Cc1nc(-c2cccc(C#N)c2)cs1`, the melting point lay in the range of 112 to 114 °C.
The figure for `CNCC(O)c1ccc(O)cc1` (stereo not given) is 184 °C; for `N#C/C(=C/c1ccc(Cl)cc1Cl)c1nc(-c2ccc([N+](=O)[O-])cc2)cs1` it is 210 °C.
Compound `NC(=NO)c1ccc(F)cc1` displayed a melting point of 92 to 95 °C.
In the case of `COc1cc(N)c2c(c1N)C(=O)c1ccccc1C2=O` it was 242 °C; in that of `BrCc1cccc(N2CCCC2)n1`, 69 to 72.5 °C; in that of `CC1=C(C)CC(Cl)(Cl)C(=O)C(Cl)(Cl)C1`, 91 °C.
With `CCN(CC)C(=O)c1ccccc1`, the melting point is 30 °C.
In the case of `COc1ccccc1Oc1ccccc1OC` it was 79.5 °C; in that of `O=C(Cl)OCC1=Cc2ccccc2S1(=O)=O`, 77 °C.
In the case of `CC(=O)NC(=O)NC(C)=O` it was 154 °C; in that of `CC12CCC(/C(=C3/OC(C4C(=O)C5(C)CCC4C5(C)C)C3=O)C1=O)C2(C)C` (stereo not given), 196 °C; in that of `Fc1cc2c(cc1F)Oc1cc(Br)c(Br)cc1O2`, 210 °C.
In the case of `CCN(CC)C(=O)c1cccc(C)c1` it was -45 °C; in that of `NCc1ccc(-c2nccs2)cc1`, 39 to 42 °C.
`CCOC1=NN(c2ccc([N+](=O)[O-])cc2)C(=O)C1` registered a melting point of 142 °C.
As to `CC(=O)Oc1ccc(Cl)cc1`, the melting point was 9 °C.
The figure for `O=[N+]([O-])c1cccc(CS(=O)(=O)Cl)c1` is 99 °C; for `O=C1NN=C(C(F)(F)F)C1=NNc1ccc(Cl)cc1` it is 215 °C.
`COc1cc(CC(=O)O)cc(OC)c1` returned a melting point of 103 °C.
The figure for `C[C@H](O)CC[C@H](C)O` is 53 °C; for `COc1ccc2c(c1)OC(c1ccccc1)CC2=O` (stereo not given) it is 88 °C; for `COC(=O)c1ccccc1S(=O)(=O)Cl` it is 62 to 63 °C.
The figure for `O=C(O)Cc1ccc2ccccc2c1` is 142 °C; for `[O-][P+](c1ccccc1)(c1ccccc1)C1C=C(c2ccccc2)OC(c2ccccc2)=C1` it is 176 °C; for `COc1ccc(Br)cc1S(=O)(=O)Cl` it is 114 °C.
The figure for `Clc1nccc2ccccc12` is 34 °C; for `O=C(O)C1(c2ccc(Cl)cc2)CCC1` it is 80 to 90 °C.
`CC1(C)OC(C)(C(OC(=O)c2ccc(Br)cc2)C2CCCCC2)CCC1C(=O)O` (stereo not given) gave a melting point of 111 °C.
`O=C(O)CC(=O)O` yielded a melting point of 136 °C.
The compound `O=[N+]([O-])c1ccc(Cc2ccncc2)cc1` registered a melting point of 71 °C.
In the case of `CCC(C(N)=O)c1ccccc1` (stereo not given) it was 86 °C; in that of `Nc1c(C(=O)O)cccc1C(F)(F)F`, 157 to 160 °C; in that of `COc1ccc(-c2nnc3n2NC(c2ccco2)S3)cc1` (stereo not given), 161 °C.
In the case of `CCCCCCCCOC(=O)CCCCCC` it was -22.5 °C; in that of `CC(C)(C)c1cc(C(C)(C)C)c([N+](=O)[O-])c(C(C)(C)C)c1`, 205 to 206 °C; in that of `O=C(C1CCNCC1)N1CCCCC1`, 107 to 109 °C.
In the case of `COc1ccc(-c2c(C(=O)O)sc(SC)c2C#N)cc1` it was 209 to 214 °C; in that of `Cc1cc(C)cc(C(=O)N(NC(=O)c2ccccc2)C(C)(C)C)c1`, 206 °C.
As for `COc1ccc(-n2nc(C(=O)c3cccc4ccccc34)sc2=N)cc1`, the melting point was found to be 75 °C.
The figure for `FC(F)(F)c1ccc2nsnc2c1` is 36 to 37 °C; for `c1ccc(C2=NCCN=C2c2ccccc2)cc1` it is 160 to 163 °C; for `CC(C)C12CCC(C)(CC1)O2` it is 1 °C.
In the case of `Cc1cccc(C)c1C(=O)O` it was 116 °C; in that of `NNc1nc(N)nc(C23CC4CC(CC(C4)C2)C3)n1`, 265 to 267 °C.
In the case of `OCc1ccc(I)cc1` it was 73 °C; in that of `Cc1ncnc2[nH]cnc12`, 235 to 240 °C.
`Cc1ccc([N+](=O)[O-])c(C)n1` registered a melting point of 32 to 38 °C.
The figure for `Clc1cc(Cl)c(-c2c(Cl)cc(Cl)c(Cl)c2Cl)cc1Cl` is 83 °C; for `c1cc2c3c(cccc3c1)-c1nc3ccccc3nc1-2` it is 239 to 242 °C.
The figure for `Cc1cc(C)c(C(C)C)cc1C` is 21 °C; for `CNC(=O)ON=CC(C)(C)SC` it is 99 °C.
The figure for `O=c1ccc2cc([N+](=O)[O-])ccc2o1` is 190 to 192 °C; for `CC1=C(C(=O)OC(C)C)C(c2ccc([N+](=O)[O-])cc2)NC(=S)N1` (stereo not given) it is 75 °C.
In turn, `N#Cc1ccc(F)cc1F` gave a melting point of 46 °C.
The figure for `CC(=Cc1ccccc1)CC(N)=O` is 133 °C; for `Cc1ccc(C(=O)OC2CC(C#N)OC2OC(=O)c2ccc(C)cc2)cc1` (stereo not given) it is 110 to 111 °C; for `CN(C)CCCCN(C)C` it is -100 °C.
In the case of `Nc1c(Br)cc(Br)cc1C(F)(F)F` it was 42 °C.
In the case of `Cc1cc(Br)c(Br)cc1C` it was 86 °C; in that of `CC(=O)N1CCCC(C)C1` (stereo not given), -13.6 °C.
As to `Cn1ncc(Br)c1C=O`, the melting point amounted to 70 °C.
The figure for `CNCc1ccccc1Cn1cncn1` is 57 to 59 °C; for `CCC1C(=CC(=O)CI)N(C)C(C)(C)N1O` (stereo not given) it is 126 to 127 °C.
